Assay results as given in PubChem BioAssay AID256 (DTP/NCI, 2004).
Where “and” joins values, the source holds several entries; their conditions need not be identical. Equal values may be shown once. Inconclusive results and toxic doses are left out.

System: CD2F1 mice, L1210 leukemia ip, survival T/C
Experiment: NCI In Vivo Anticancer Drug Screen. Data for tumor model L1210 Leukemia (intraperitoneal) in CD2F1 (CDF1) mice
Details: higher = longer survival
In short: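 Each value reflects a quotient of treated over vehicle control outcomes in mice with a transplanted tumor.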

[1] = endpoint: mean survival time, dose: 100.0 mg/kg/injection, schedule: Q01DX001 (ip), vehicle: saline with Tween-80
[2] = endpoint: mean survival time, dose: 200.0 mg/kg/injection, schedule: Q01DX001 (ip), vehicle: saline with Tween-80
[3] = endpoint: mean survival time, dose: 50.0 mg/kg/injection, schedule: Q01DX009 (ip), vehicle: saline with Tween-80
[4] = endpoint: mean survival time, dose: 100.0 mg/kg/injection, schedule: Q01DX009 (ip), vehicle: saline with Tween-80
[5] = endpoint: mean survival time, dose: 200.0 mg/kg/injection, schedule: Q01DX009 (ip), vehicle: saline with Tween-80
[6] = endpoint: mean survival time, dose: 100.0 mg/kg/injection, schedule: Q04DX002 (ip), vehicle: saline with Tween-80
[7] = endpoint: mean survival time, dose: 200.0 mg/kg/injection, schedule: Q04DX002 (ip), vehicle: saline with Tween-80
[8] = endpoint: mean survival time, dose: 100.0 mg/kg/injection, schedule: Q01DX009 (ip), vehicle: other
[9] = endpoint: mean survival time, dose: 100.0 mg/kg/injection, schedule: Q04DX003 (ip), vehicle: other
[10] = endpoint: mean survival time, dose: 200.0 mg/kg/injection, schedule: Q01DX009 (ip), vehicle: other
[11] = endpoint: mean survival time, dose: 200.0 mg/kg/injection, schedule: Q04DX003 (ip), vehicle: other
[12] = endpoint: mean survival time, dose: 400.0 mg/kg/injection, schedule: Q01DX001 (ip), vehicle: saline with Tween-80
[13] = endpoint: mean survival time, dose: 400.0 mg/kg/injection, schedule: Q04DX002 (ip), vehicle: saline with Tween-80
[14] = endpoint: mean survival time, dose: 0.78 mg/kg/injection, schedule: Q01DX009 (ip), vehicle: saline with Tween-80
[15] = endpoint: mean survival time, dose: 1.56 mg/kg/injection, schedule: Q01DX009 (ip), vehicle: saline with Tween-80
[16] = endpoint: mean survival time, dose: 12.5 mg/kg/injection, schedule: Q01DX009 (ip), vehicle: saline with Tween-80
[17] = endpoint: mean survival time, dose: 25.0 mg/kg/injection, schedule: Q01DX009 (ip), vehicle: saline with Tween-80
[18] = endpoint: mean survival time, dose: 100.0 mg/kg/injection, schedule: Q01DX001 (ip), vehicle: saline

## c1ccc2c(c1)OCC(CN1CCc3[nH]c4ccccc4c3C1)O2 (stereo not drawn)
endpoint: mean survival time, dose: 50.0 mg/kg/injection, schedule: Q01DX001 (ip), vehicle: saline with Tween-80
  T/C: 106 % of control
[1]
  T/C: 98 % of control
[2]
  T/C: 93 % of control

## O=C1C=C(c2ccccc2)C(O)(c2ccccc2)C1 (stereo not drawn)
[3]
  T/C: 89 % of control
[4]
  T/C: 104 % of control
[5]
  T/C: 89 % of control

## CC1(C)C(O)(C#N)C(C)(C)C1(O)C#N (stereo not drawn)
endpoint: mean survival time, dose: 6.25 mg/kg/injection, schedule: Q04DX003 (ip), vehicle: saline
  T/C: 102 % of control
endpoint: mean survival time, dose: 12.5 mg/kg/injection, schedule: Q04DX003 (ip), vehicle: saline
  T/C: 97 % of control

## O=[n+]1ccn([O-])c2ccccc21
[6]
  T/C: 111 % of control
[7]
  T/C: 105 % of control

## Cc1ccc(N)nc1[N+](=O)[O-]
[8]
  T/C: 100 % of control
[9]
  T/C: 102 % of control
[10]
  T/C: 96 % of control
[11]
  T/C: 96 % of control
endpoint: mean survival time, dose: 400.0 mg/kg/injection, schedule: Q01DX009 (ip), vehicle: other
  T/C: 100 % of control
endpoint: mean survival time, dose: 400.0 mg/kg/injection, schedule: Q04DX003 (ip), vehicle: other
  T/C: 96 % of control

## O=C(O)c1ccc([N+](=O)[O-])cc1[N+](=O)[O-]
[1]
  T/C: 87 % of control
[2]
  T/C: 97 % of control
[12]
  T/C: 91 % of control

## C=C(NC(=O)C(=C)NC(=O)c1csc(C2=NC3c4csc(n4)C4NC(=O)c5csc(n5)C(C(C)(O)C(C)O)NC(=O)C5CSC(=N5)/C(=C/C)NC(=O)C(C(C)O)NC(=O)c5csc(n5)C3(CC2)NC(=O)C(C)NC(=O)C(=C)NC(=O)C(C)NC(=O)C(C(C)CC)NC2C=Cc3c(C(C)O)cc(nc3C2O)C(=O)OC4C)n1)C(N)=O (stereo not drawn)
endpoint: mean survival time, dose: 118.0 mg/kg/injection, schedule: Q04DX003 (ip), vehicle: saline
  T/C: 117 % of control

## O=C(Nc1ccccc1[N+](=O)[O-])OCc1ccccc1
[6]
  T/C: 95 % of control
[7]
  T/C: 91 % of control
[13]
  T/C: 91 % of control

## Nc1nc2n[nH]nc2c(=O)[nH]1
[14]
  T/C: 103 % of control
[15]
  T/C: 115 % of control
[16]
  T/C: 150 % of control
[17]
  T/C: 151 % of control
endpoint: mean survival time, dose: 50.0 mg/kg/injection, schedule: Q01DX009 (ip), vehicle: other
  T/C: 154 % of control
[3]
  T/C: 156 % of control and 158 % of control
endpoint: mean survival time, dose: 50.0 mg/kg/injection, schedule: Q03DX003 (ip), vehicle: other
  T/C: 120 % of control
endpoint: mean survival time, dose: 50.0 mg/kg/injection, schedule: Q04DX003 (ip), vehicle: other
  T/C: 111 % of control
endpoint: mean survival time, dose: 75.0 mg/kg/injection, schedule: Q01DX009 (ip), vehicle: saline with Tween-80
  T/C: 114 % of control
endpoint: mean survival time, dose: 100.0 mg/kg/injection, schedule: Q01DX001 (ip), vehicle: saline sonified
  T/C: 108 % of control
[8]
  T/C: 153 % of control
[4]
  T/C: 97 % of control and 107 % of control
[9]
  T/C: 123 % of control
endpoint: mean survival time, dose: 200.0 mg/kg/injection, schedule: Q01DX001 (ip), vehicle: saline sonified
  T/C: 108 % of control
endpoint: mean survival time, dose: 200.0 mg/kg/injection, schedule: Q01DX007 (ip), vehicle: other
  T/C: 150 % of control
[10]
  T/C: 153 % of control
endpoint: mean survival time, dose: 200.0 mg/kg/injection, schedule: Q01DX009 (ip), vehicle: saline sonified
  T/C: 106 % of control
[5]
  T/C: 97 % of control
endpoint: mean survival time, dose: 200.0 mg/kg/injection, schedule: Q03DX003 (ip), vehicle: other
  T/C: 120 % of control
[11]
  T/C: 119 % of control
endpoint: mean survival time, dose: 400.0 mg/kg/injection, schedule: Q01DX001 (ip), vehicle: saline sonified
  T/C: 112 % of control
endpoint: median survival time, dose: 50.0 mg/kg/injection, schedule: Q01DX009 (ip), vehicle: saline
  T/C: 164 % of control
endpoint: median survival time, dose: 100.0 mg/kg/injection, schedule: Q01DX009 (ip), vehicle: saline
  T/C: 164 % of control
endpoint: median survival time, dose: 200.0 mg/kg/injection, schedule: Q01DX009 (ip), vehicle: saline
  T/C: 164 % of control
endpoint: median survival time, dose: 400.0 mg/kg/injection, schedule: Q01DX009 (ip), vehicle: saline
  T/C: 111 % of control

## C(=N\Nc1ccccc1)/c1ccc2c(c1)OCO2
[1]
  T/C: 100 % of control
[4]
  T/C: 97 % of control
[2]
  T/C: 101 % of control
[5]
  T/C: 104 % of control
[12]
  T/C: 95 % of control
endpoint: mean survival time, dose: 400.0 mg/kg/injection, schedule: Q01DX009 (ip), vehicle: saline with Tween-80
  T/C: 100 % of control

## CN(C)B(B(N(C)C)N(C)C)N(C)C
[18]
  T/C: 105 % of control
endpoint: mean survival time, dose: 200.0 mg/kg/injection, schedule: Q01DX001 (ip), vehicle: saline
  T/C: 97 % of control
endpoint: mean survival time, dose: 400.0 mg/kg/injection, schedule: Q01DX001 (ip), vehicle: saline
  T/C: 101 % of control

## CC1(Br)C(Sc2ccccc2[N+](=O)[O-])=Nc2ccccc21 (stereo not drawn)
endpoint: mean survival time, dose: 50.0 mg/kg/injection, schedule: Q01DX009 (ip), vehicle: Klucel (hydroxypropylcellulose) (HPC)
  T/C: 94 % of control
endpoint: mean survival time, dose: 100.0 mg/kg/injection, schedule: Q01DX009 (ip), vehicle: Klucel (hydroxypropylcellulose) (HPC)
  T/C: 94 % of control
endpoint: mean survival time, dose: 200.0 mg/kg/injection, schedule: Q01DX009 (ip), vehicle: Klucel (hydroxypropylcellulose) (HPC)
  T/C: 94 % of control

## CC(=O)OCC1C(OC(C)=O)CC2CCC1N2C#N (stereo not drawn)
endpoint: mean survival time, dose: 50.0 mg/kg/injection, schedule: Q04DX002 (ip), vehicle: Klucel (hydroxypropylcellulose) (HPC)
  T/C: 107 % of control
endpoint: mean survival time, dose: 100.0 mg/kg/injection, schedule: Q04DX002 (ip), vehicle: Klucel (hydroxypropylcellulose) (HPC)
  T/C: 96 % of control
endpoint: mean survival time, dose: 200.0 mg/kg/injection, schedule: Q04DX002 (ip), vehicle: Klucel (hydroxypropylcellulose) (HPC)
  T/C: 88 % of control and 89 % of control

## Cc1cccc(C2=N/C(=C\c3ccc(N(C)C)cc3)C(=O)O2)c1
endpoint: mean survival time, dose: 25.0 mg/kg/injection, schedule: Q04DX002 (ip), vehicle: saline with Tween-80
  T/C: 102 % of control
endpoint: mean survival time, dose: 50.0 mg/kg/injection, schedule: Q04DX002 (ip), vehicle: saline with Tween-80
  T/C: 91 % of control
[6]
  T/C: 94 % of control
[7]
  T/C: 95 % of control
[13]
  T/C: 95 % of control

## CCCCCCCCCCCCCCCC(=O)NCC[N+](C)(C)C
endpoint: mean survival time, dose: 75.0 mg/kg/injection, schedule: Q01DX001 (ip), vehicle: saline
  T/C: 107 % of control
endpoint: mean survival time, dose: 150.0 mg/kg/injection, schedule: Q01DX001 (ip), vehicle: saline
  T/C: 104 % of control
endpoint: mean survival time, dose: 300.0 mg/kg/injection, schedule: Q01DX001 (ip), vehicle: saline
  T/C: 104 % of control

## NNC(=O)Nc1cccnc1
endpoint: mean survival time, dose: 18.75 mg/kg/injection, schedule: Q01DX009 (ip), vehicle: saline
  T/C: 106 % of control
endpoint: mean survival time, dose: 37.5 mg/kg/injection, schedule: Q01DX009 (ip), vehicle: saline
  T/C: 98 % of control
endpoint: mean survival time, dose: 75.0 mg/kg/injection, schedule: Q01DX009 (ip), vehicle: saline
  T/C: 101 % of control

## CN=S(=O)(OCCCCCOS(=O)(=NC)c1ccc(C)cc1)c1ccc(C)cc1 (stereo not drawn)
endpoint: mean survival time, dose: 0.39 mg/kg/injection, schedule: Q01DX009 (ip), vehicle: saline with Tween-80
  T/C: 97 % of control
[14]
  T/C: 103 % of control
[15]
  T/C: 97 % of control
endpoint: mean survival time, dose: 3.12 mg/kg/injection, schedule: Q01DX009 (ip), vehicle: saline with Tween-80
  T/C: 105 % of control
endpoint: mean survival time, dose: 6.25 mg/kg/injection, schedule: Q01DX009 (ip), vehicle: saline with Tween-80
  T/C: 95 % of control and 100 % of control
[16]
  T/C: 97 % of control and 101 % of control
[17]
  T/C: 103 % of control
[3]
  T/C: 97 % of control
[4]
  T/C: 101 % of control
[5]
  T/C: 100 % of control

## O=C(O)C(S)C(S)C(=O)O.[As] (stereo not drawn)
endpoint: mean survival time, dose: 25.0 mg/kg/injection, schedule: Q04DX003 (ip), vehicle: saline
  T/C: 95 % of control
endpoint: mean survival time, dose: 50.0 mg/kg/injection, schedule: Q01DX001 (ip), vehicle: saline
  T/C: 89 % of control
endpoint: mean survival time, dose: 50.0 mg/kg/injection, schedule: Q04DX003 (ip), vehicle: saline
  T/C: 92 % of control
[18]
  T/C: 100 % of control
endpoint: mean survival time, dose: 100.0 mg/kg/injection, schedule: Q04DX003 (ip), vehicle: saline
  T/C: 100 % of control

## CN(Cc1cnc2nc(N)nc(N)c2c1)c1ccc(C(=O)NC(CCC(=O)O)C(=O)O)cc1 (stereo not drawn)
endpoint: median survival time, dose: 4.0 mg/kg/injection, schedule: Q01DX005 (ip), vehicle: other
  T/C: 158 % of control
endpoint: median survival time, dose: 8.0 mg/kg/injection, schedule: Q01DX005 (ip), vehicle: other
  T/C: 158 % of control

## COc1cc(NS(C)(=O)=O)ccc1Nc1c2ccccc2nc2cc(C(F)(F)F)c(N)cc12
endpoint: mean survival time, dose: 200.0 mg/kg/injection, schedule: Q01DX001 (ip), vehicle: Klucel (hydroxypropylcellulose) (HPC)
  T/C: 154 % of control
endpoint: mean survival time, dose: 400.0 mg/kg/injection, schedule: Q01DX001 (ip), vehicle: Klucel (hydroxypropylcellulose) (HPC)
  T/C: 265 % of control
